One block for each compound: values may come before it.
What was measured:
[1] = test system: hair growth of hamster flank organs; test: Golden Syrian hamster assay (flank organ hair mass after topical application); format: in vivo; details: for Treated (mg) hair mass: treated flank organ, mean ± SEM; for Percent Inhibition (mean ± SEM) of hair growth: vs vehicle treated side
Excerpt: Male intact Golden Syrian hamsters are considered acceptable models for human beard hair growth in that they display oval shaped flank organs, one of each side, each about 8 mm. in major diameter, which growth thick black and coarse hair similar to human beard hair. These organs produce hair in response to androgens in the hamster. To evaluate the effectiveness of a particular arginase inhibitor the flank organs of each of a group of hamsters are depilated by applying a thioglycolate based chemical depilatory (Surgex). To one organ of each animal 10 μl of vehicle alone once a day is applied, while to the other organ of each animal an equal amount of vehicle containing an arginase inhibitor is applied. After thirteen applications (one application per day for five days a week), the flank organs are shaved and the amount of recovered hair (hair mass) from each is weighed. Percent-reduction of hair growth is calculated by subtracting the hair mass (mg) value of the test compound treated side from the hair mass value of the vehicle treated side; the delta value obtained is then divided by the hair mass value of the vehicle treated side, and the resultant number is multiplied by 100.
The above-described assay will be referred to herein as the "Golden Syrian hamster" assay.

hair follicle arginase = test: In vitro assay for inhibitors of hair follicle arginase; format: biochemical; details: compound 10 μM, hamster flank organ hair follicle extract, 5 minutes at 37° C., ornithine formation by HPLC
Description: Extracts of hair follicles were obtained by excising and sonicating hair follicles obtained from hamster flank organs. The hair follicles from the hamster flank organ were excised and sonicated in a 0.01M Tris-buffered solution, pH 7.5. The sonicated extracts were centrifuged at 12,000×g, and the supernatant was used to measure arginase activity. Final reaction volumes were achieved by using 90 μl of the follicle supernatant, which was mixed with 100 μl of the Tris buffer (with or without the inhibitor), and 10 μl of 20 mM arginine incubated for 5 minutes at 37° C. The enzyme reaction was stopped by separating the enzyme from the substrate with a 10,000 molecular weight cut off filter. The product formed, ornithine, was separated from the substrate arginine using reverse phase HPLC methodology. An aliquot of the reaction was used to generate 20 μl of the filtrate which was reacted with 20 μl of O-pthalaldehyde (OPA) reagent. This reagent rapidly reacts with all primary amino acids to form fluorescent adducts that are separated on a C18 column (15 cm×3.9 mm). The 40 μl of derivatized sample is injected into the HPLC column and eluted with a stepwise gradient starting at 100% Buffer A (0.024M sodium acetate, 0.024M sodium phosphate, pH 4.0/methanol/tetrahydrofuran in a ratio of 81:15:4) and ending in a 50/50 mixture of Buffer A and Buffer B (methanol/water/tetrahydrofuran in a ratio of 75:15:10). A fluorescent detector was used to monitor the amino acid peaks as they eluted off the column.

[2] = dose 7.5%, vehicle A, pH 3.5, 13 applications
[3] = dose 10%, vehicle B, pH 7.0, 13 applications
[4] = dose 10%, vehicle A, pH not given, 13 applications
[5] = dose 10%, vehicle A, pH 6.5, 13 applications
[6] = dose 10%, vehicle H2O, 13 applications

% Inhibition of hair follicle arginase (hair follicle arginase): 64%
Structure (SMILES): Cc1ccc(S(=O)(=O)N[C@@H](CCCNC(=N)N)C(=O)O)cc1 [N-Tosyl-L-arginine]
Treated (mg) hair mass [1, 2]: 0.83 ± .13 mg
Percent Inhibition (mean ± SEM) of hair growth [1, 2]: 42 ± 13

% Inhibition of hair follicle arginase (hair follicle arginase): 50%
Structure (SMILES): CC(NC(CCCNC(=N)N)C(=O)O)C(=O)O (stereo not drawn) [Octopine]
Treated (mg) hair mass [1, 3]: 0.45 ± .07 mg
Percent Inhibition (mean ± SEM) of hair growth [1, 3]: 68 ± 6

% Inhibition of hair follicle arginase (hair follicle arginase): 98%
Structure (SMILES): N=C(NO)NCCC[C@H](N)C(=O)O [N^-G -Hydroxy-L-arginine]
Treated (mg) hair mass [1, 4]: 0.97 ± .19 mg
Percent Inhibition (mean ± SEM) of hair growth [1, 4]: 66 ± 6

Structure (SMILES): CCN=C=NCCCN(C)C [1-Ethyl-3-(3-dimethylaminopropyl)-carbodiimide]
Treated (mg) hair mass [1, 5]: 0.9 ± 0.9 mg
Percent Inhibition (mean ± SEM) of hair growth [1, 5]: 57 ± 5
% Inhibition of hair follicle arginase (hair follicle arginase): 64%

% Inhibition of hair follicle arginase (hair follicle arginase): 27%
Structure (SMILES): CC(C)(N)C(=O)O [α-Aminoisobutyric acid]
Treated (mg) hair mass [1, 6]: 1.96 ± 2.1 mg
Percent Inhibition (mean ± SEM) of hair growth [1, 6]: 34 ± 9

From patent publication US5728736A, “Reduction of hair growth” (priority 1995, dated 1998)
